Laboratory results from patent publication US20230263712A1, “AN ORAL CARE ANTIMICROBIAL COMPOSITION, PROCESS FOR PREPARING THE SAME AND METHOD OF USE THEREOF” (ISP INVESTMENTS LLC, priority 2020, published 2023).
Where two headings read alike, the source gives them in different places.

Tested on: Streptococcus mutans UA159
Test: Checkerboard microplate synergy assay (MIC, Synergy Index by the Kull method)
Assay type: cell-based
Details: for HPB Qa: MIC of compound A (HPB) when used in combination with compound B: HPB concentration in the combination with the labelled compound B; for SI index (Synergy Index = Qa/QA + Qb/QB): combination of HPB (raspberry ketone) with the labelled compound B, SI <1 synergistic
Experimental: The synergistic antimicrobial effect was determined using the commonly accepted method described by Kull […]. and Mayer, R. L. 1961. Applied Microbiology, 9:538-541 Brief description of the assay: Standard checkerboard approach was used to make all the dilutions. HPB (compound A) solution was prepared in DMSO and then serially diluted using a 96-well dilution plate. Automated liquid handler was then used to stamp multiple assay plates out of this dilution plate. Each well of the assay plate was then supplemented with a predetermined concentration of the second antimicrobial (compound B). The final concentration of DMSO was kept constant across the plate for each assay, not exceeding 3% (w/w). Then, S. mutans cell suspension in Todd Hewitt Broth supplemented with yeast extract (THYEB) was added to the appropriate wells of the assay plate with the final cell density being 10^6 cfu/ml. The assay plates were incubated for 48 hours at 37° C. in the atmosphere containing 5% CO2 prior to being evaluated. The lowest concentration of each compound (or a mixture of the two compounds) to inhibit visible growth was taken as the minimum inhibitory concentration (MIC). The MIC was taken as the end point of activity. End points for the combination of compound A (HPB) and compound B were then compared to the end points for each compound being used individually.

[1] = S. mutans, THYEB, 48 hours at 37° C., 5% CO2
[2] = Streptococcus mutans, UA159, S. mutans, THYEB, 48 hours at 37° C., 5% CO2, alone, read-out: Compound B QB: MIC of compound B acting alone

Row | SMILES | HPB Qa: MIC of compound A (HPB) when used in combination with compound B [1] | Compound B Qb: MIC of compound B when used in combination with compound A (HPB) [1] | SI index (Synergy Index = Qa/QA + Qb/QB) (S. mutans) | MIC [2] | also measured
1 | N=C(NCCCCCCNC(=N)NC(=N)Nc1ccc(Cl)cc1)NC(=N)Nc1ccc(Cl)cc1.O=C(O)[C@H](O)[C@@H](O)[C@H](O)[C@H](O)CO.O=C(O)[C@H](O)[C@@H](O)[C@H](O)[C@H](O)CO [Chlorhexidine digluconate] | 4,000 ppm | 0.4 ppm | ≤0.75 |  | Compound B QB: MIC of compound B acting alone (S. mutans, THYEB, 48 hours at 37° C., 5% CO2, alone): 1.6 ppm
2 | CC(=O)CCc1ccc(O)cc1 [HPB, 4-(4-hydroxyphenyl) butan-2-one] |  |  |  |  | MIC (Streptococcus mutans, UA159, S. mutans, THYEB, 48 hours at 37° C., 5% CO2, alone, read-out: HPB QA: MIC of compound A (HPB) acting alone): ≥ 8000 µg/mL
3 | Cc1cc(O)ccc1C(C)C [Isopropyl Methylphenol (IPMP), 4-isopropyl-3-methyl phenol] | 125 ppm | 250 ppm | ≤0.5016 | 500 µg/mL | SI index (Synergy Index = Qa/QA + Qb/QB) (S. mutans, listed as IPMP): ≤ 0.5016
4 | CC1CCC(C(C)C)C(O)C1 (centres unmarked) [Menthol] | 4,000 ppm | 1,000 ppm |  | ≥ 4000 µg/mL | 
5 | Cc1ccc(C(C)C)c(O)c1 [Thymol] | 4,000 ppm | 15.6 ppm | ≤0.625 | 125 µg/mL | SI index (Synergy Index = Qa/QA + Qb/QB) (S. mutans, listed as thymol): ≤ 0.625
6 | CC12CCC(CC1)C(C)(C)O2 [eucalyptol] |  |  |  |  | MIC (alone, even when solubilized with 2% of Pluronic F-127): > 2%; Synergy with raspberry ketone (HPB) (standard synergy assay vs S. mutans): not detected
